By melting point is commonly meant the temperature of the solid-liquid transition.

Molecules are shown by their SMILES. Structures can show the parent of a compound that is named as a salt.

As to `NC(=O)c1ccc(F)c2c1CC(N(CCCc1c[nH]c3ccc(F)cc13)C1CCC1)CO2` (single isomer, unassigned; (+)) (as salt: hydrochloride) [Compound 4a, (+)-3-{cyclobutyl[3-(5-fluoro-1H-indol-3-yl)propyl]amino}-8-fluorochromane-5-carboxamide], the melting point is 129 °C (dec.).
For `NC(=O)c1ccc(F)c2c1CC(N(CCC(=O)c1c[nH]c3ccc(F)cc13)C1CCC1)CO2` (stereo not drawn) (as salt: hydrochloride) [Compound 8, 3-{cyclobutyl[3-(5-fluoro-1H-indol-3-yl)-3-oxopropyl]amino}-8-fluorochromane-5-carboxamide], the melting point is 139 °C (dec.).
`COC(=O)c1ccc(F)c2c1CC(N(CCCc1c[nH]c3ccc(F)cc13)C1CCC1)CO2` (stereo not drawn) (as salt: hydrochloride) [Compound 11, Methyl 3-{cyclobutyl[3-(5-fluoro-1H-indol-3-yl)propyl]amino}-8-fluorochromane-5-carboxylate]: the melting point is 110 °C (dec.).
As to `O=C(O)c1ccc(F)c2c1CC(N(CCCc1c[nH]c3ccc(F)cc13)C1CCC1)CO2` (stereo not drawn) (as salt: hydrochloride) [Compound 56, 3-{cyclobutyl[3-(5-fluoro-1H-indol-3-yl)propyl]amino}-8-fluorochromane-5-carboxylic acid], the melting point was 140 °C (dec.).
Take `C[C@@H](CCN(C1CCC1)[C@H]1COc2c(F)ccc(C(N)=O)c2C1)c1c[nH]c2ccc(F)cc12` (as salt: hydrochloride) [Compound 153a, (3R)-3-{cyclobutyl[(3S)-3-(5-fluoro-1H-indol-3-yl)butyl]amino}-8-fluorochromane-5-carboxamide]: the melting point is 160 to 168 °C (dec.).
For `CCN(CCCCc1coc2c(OC)cccc12)C1COc2c(F)ccc(C(N)=O)c2C1` (stereo not drawn) (as salt: hydrochloride) [Compound 168, 3-{ethyl[4-(7-methoxy-1-benzofuran-3-yl)butyl]amino}-8-fluorochromane-5-carboxamide], the melting point was 112 to 118 °C.
Compound `CCCN(CCCc1coc2c(OC)cccc12)C1COc2c(F)ccc(C(N)=O)c2C1` (stereo not drawn) (as salt: hydrochloride) [Compound 163, 8-fluoro-3-[[3-(7-methoxy-1-benzofuran-3-yl)propyl](propyl)amino]chromane-5-carboxamide] had a melting point of 123 to 129 °C.
Turning to `CCN(CCCc1c[nH]c2ccc(Cl)cc12)C1COc2c(F)ccc(C(N)=O)c2C1` (stereo not drawn) (as salt: hydrochloride) [Compound 115, 3-[[3-(5-chloro-1H-indol-3-yl)propyl](ethyl)amino]-8-fluorochromane-5-carboxamide], the melting point is 149 to 156 °C (dec.).
For `COc1cccc2c1CC(N(CCCc1c[nH]c3ccc(F)cc13)C1CC1)CO2` (stereo not drawn) (as salt: hydrochloride) [Compound 41, N-cyclopropyl-N-[3-(5-fluoro-1H-indol-3-yl)propyl]-N-(5-methoxy-3,4-dihydro-2H-chromen-3-yl)amine], the melting point is 115 °C (dec.).
With `CCCN(CCCc1c[nH]c2ccc(F)cc12)C1COc2c(F)ccc(C(N)=O)c2C1` (stereo not drawn) (as salt: hydrochloride) [Compound 2, 8-fluoro-3-{[3-(5-fluoro-1H-indol-3-yl)propyl](propyl)amino}chromane-5-carboxamide], the melting point is 125 °C (dec.).
Consider `CCCCCN(CCCc1c[nH]c2ccc(F)cc12)C1COc2c(F)ccc(C(N)=O)c2C1` (stereo not drawn) (as salt: hydrochloride) [Compound 71, 8-fluoro-3-[[3-(5-fluoro-1H-indol-3-yl)propyl](pentyl)amino]chromane-5-carboxamide], for which the melting point was 128 °C (dec.).
`CCCN(CCc1coc2c(OC)cccc12)C1COc2c(F)ccc(C(N)=O)c2C1` (stereo not drawn) (as salt: hydrochloride) [Compound 158, 8-fluoro-3-[[2-(7-methoxy-1-benzofuran-3-yl)ethyl](propyl)amino]chromane-5-carboxamide] showed a melting point of 125 to 132 °C.
Turning to `O=C(NC1CCCCC1)c1ccc(F)c2c1CC(N(CCCc1c[nH]c3ccc(F)cc13)C1CCC1)CO2` (stereo not drawn) (as salt: hydrochloride) [Compound 67, 3-{cyclobutyl[3-(5-fluoro-1H-indol-3-yl)propyl]amino}-N-cyclohexyl-8-fluorochromane-5-carboxamide], the melting point was 134 °C (dec.).
To `COc1cccc2c1CC(N(CCCc1c[nH]c3ccc(C#N)cc13)CC1CC1)CO2` (stereo not drawn) (as salt: hydrochloride) [Compound 45, 3-{3-[(cyclopropylmethyl)(5-methoxy-3,4-dihydro-2H-chromen-3-yl)amino]propyl}-1H-indole-5-carbonitrile] belongs 123 to 127 °C (dec.); to `O=C(NCc1ccccc1)c1ccc(F)c2c1CC(N(CCCc1c[nH]c3ccc(F)cc13)C1CCC1)CO2` (stereo not drawn) (as salt: hydrochloride) [Compound 69, N-benzyl-3-{cyclobutyl[3-(5-fluoro-1H-indol-3-yl)propyl]amino}-8-fluorochromane-5-carboxamide], 124 °C (dec.).
The compound `CCN(CCCCc1coc2ccccc12)C1COc2cccc(OC)c2C1` (stereo not drawn) (as salt: hydrochloride) [Compound 22, N-[4-(1-benzofuran-3-yl)butyl]-N-ethyl-N-(5-methoxy-3,4-dihydro-2H-chromen-3-yl)amine] had a melting point of 152 to 154 °C.
To `NC(=O)c1ccc(F)c2c1CC(N(CCCc1c[nH]c3ccc(F)cc13)CC1CC1)CO2` (single isomer, unassigned; (-)) (as salt: hydrochloride) [Compound 5a, (−)-3-{(cyclopropylmethyl)[3-(5-fluoro-1H-indol-3-yl)propyl]amino}-8-fluorochromane-5-carboxamide] belongs 123 °C (dec.).
`NC(=O)c1ccc(F)c2c1CC(N(CCCc1c[nH]c3c(Cl)cccc13)CC1CC1)CO2` (stereo not drawn) (as salt: hydrochloride) [Compound 112, 3-[[3-(7-chloro-1H-indol-3-yl)propyl](cyclopropylmethyl)amino]-8-fluorochromane-5-carboxamide]: the melting point was 147 to 155 °C (dec.).
To `COc1cccc2c1CC(N(CCCc1c[nH]c3ccc(F)cc13)C1CCC1)CO2` (stereo not drawn) (as salt: hydrochloride) [Compound 34, N-cyclobutyl-N-[3-(5-fluoro-1H-indol-3-yl)propyl]-5-methoxychroman-3-amine] belongs 70.5 °C (dec.); to `NC(=O)c1ccc(F)c2c1CC(N(CCCc1c[nH]c3cc(F)ccc13)CC1CC1)CO2` (stereo not drawn) (as salt: hydrochloride) [Compound 52a, 3-{(cyclopropylmethyl)[3-(6-fluoro-1H-indol-3-yl)propyl]amino}-8-fluorochromane-5-carboxamide], 123 °C (dec.).
Regarding `COC(=O)c1ccc(F)c2c1C[C@@H](N(CCCCc1c[nH]c3ccc(F)cc13)C1CCC1)CO2` (as salt: hydrochloride) [Compound 58b, Methyl (3R)-3-{cyclobutyl[4-(5-fluoro-1H-indol-3-yl)butyl]amino}-8-fluorochromane-5-carboxylate], the melting point is 209 °C (dec.).
Regarding `CCCN(C1COc2cccc(OC)c2C1)[C@H]1CC[C@@H](c2c[nH]c3ccc(F)cc32)CC1` (relative stereo) (as salt: hydrochloride) [Compound 182, cis-N-[4-(5-fluoro-1H-indol-3-yl)cyclohexyl]-5-methoxy-N-propylchroman-3-amine], the melting point was 148 °C (dec.).
The result for `CCNC(=O)c1ccc(F)c2c1CC(N(CCCc1c[nH]c3ccc(F)cc13)C1CCC1)CO2` (stereo not drawn) (as salt: hydrochloride) [Compound 60, 3-{cyclobutyl[3-(5-fluoro-1H-indol-3-yl)propyl]amino}-N-ethyl-8-fluorochromane-5-carboxamide] reads 130 °C (dec.); that for `NC(=O)c1ccc(F)c2c1CC(N(CCCCc1c[nH]c3ccc(F)cc13)C1CCC1)CO2` (stereo not drawn) (as salt: hydrochloride) [Compound 83, 3-{cyclobutyl[4-(5-fluoro-1H-indol-3-yl)butyl]amino}-8-fluorochromane-5-carboxamide], 122 °C (dec.); that for `CCCN(CCCc1c[nH]c2ccc(F)cc12)C1CCc2c(F)ccc(OC)c2C1` (single isomer, unassigned; (+)) (as salt: hydrochloride) [Compound 51a, (+)-5-fluoro-N-[3-(5-fluoro-1H-indol-3-yl)propyl]-8-methoxy-N-propyl-1,2,3,4-tetrahydro-2-naphthalenamine], 117 °C (dec.).
`CCCN(CCC(O)c1csc2ccc(F)cc12)C1COc2c(F)ccc(C(N)=O)c2C1` (stereo not drawn) (as salt: hydrochloride) [Compound 17, 8-fluoro-3-[[3-(5-fluoro-1-benzothien-3-yl)-3-hydroxypropyl](propyl)amino]chromane-5-carboxamide]: the melting point was 117 °C (dec.).
As for `CCCN(CCCc1coc2ccccc12)C1COc2c(F)ccc(C(N)=O)c2C1` (stereo not drawn) (as salt: hydrochloride) [Compound 20, 3-[[3-(1-benzofuran-3-yl)propyl](propyl)amino]-8-fluorochromane-5-carboxamide], the melting point is 114 to 118 °C (dec.).
The result for `CCCN(CCCc1c[nH]c2ccccc12)C1CCc2cccc(OC)c2C1` (stereo not drawn) (as salt: hydrochloride) [Compound 50, N-[3-(1H-indol-3-yl)propyl]-8-methoxy-N-propyl-1,2,3,4-tetrahydronaphthalen-2-amine] reads 108 °C (dec.); that for `CCN(CCc1coc2c(OC)cccc12)C1COc2c(F)ccc(C(N)=O)c2C1` (stereo not drawn) (as salt: hydrochloride) [Compound 157, 3-{ethyl[2-(7-methoxy-1-benzofuran-3-yl)ethyl]amino}-8-fluorochromane-5-carboxamide], 124 to 132 °C.
Turning to `NC(=O)c1ccc(F)c2c1OCC(N(CCCCc1c[nH]c3ccc(F)cc13)C1CCC1)C2` (stereo not drawn) (as salt: hydrochloride) [Compound 126, 3-{cyclobutyl[4-(5-fluoro-1H-indol-3-yl)butyl]amino}-5-fluorochromane-8-carboxamide], the melting point is 130 °C (dec.).

The record behind these values is US20050032873A1, “3-Amino chroman and 2-amino tetralin derivatives” (Wyeth, priority 2003, published 2005).
